The values below come from article PMC9329436, “Optimization of the 4-anilinoquin(az)oline scaffold as epidermal growth factor receptor (EGFR) inhibitors for chordoma utilizing a toxicology profiling assay platform” (Scientific Reports, 2022).

Common to all, as to type: biochemical
Test [1] concerns the target T1, 320 wild-type protein kinases (Homo sapiens, UniProt P30530).
T1 sequence (P30530 26-894): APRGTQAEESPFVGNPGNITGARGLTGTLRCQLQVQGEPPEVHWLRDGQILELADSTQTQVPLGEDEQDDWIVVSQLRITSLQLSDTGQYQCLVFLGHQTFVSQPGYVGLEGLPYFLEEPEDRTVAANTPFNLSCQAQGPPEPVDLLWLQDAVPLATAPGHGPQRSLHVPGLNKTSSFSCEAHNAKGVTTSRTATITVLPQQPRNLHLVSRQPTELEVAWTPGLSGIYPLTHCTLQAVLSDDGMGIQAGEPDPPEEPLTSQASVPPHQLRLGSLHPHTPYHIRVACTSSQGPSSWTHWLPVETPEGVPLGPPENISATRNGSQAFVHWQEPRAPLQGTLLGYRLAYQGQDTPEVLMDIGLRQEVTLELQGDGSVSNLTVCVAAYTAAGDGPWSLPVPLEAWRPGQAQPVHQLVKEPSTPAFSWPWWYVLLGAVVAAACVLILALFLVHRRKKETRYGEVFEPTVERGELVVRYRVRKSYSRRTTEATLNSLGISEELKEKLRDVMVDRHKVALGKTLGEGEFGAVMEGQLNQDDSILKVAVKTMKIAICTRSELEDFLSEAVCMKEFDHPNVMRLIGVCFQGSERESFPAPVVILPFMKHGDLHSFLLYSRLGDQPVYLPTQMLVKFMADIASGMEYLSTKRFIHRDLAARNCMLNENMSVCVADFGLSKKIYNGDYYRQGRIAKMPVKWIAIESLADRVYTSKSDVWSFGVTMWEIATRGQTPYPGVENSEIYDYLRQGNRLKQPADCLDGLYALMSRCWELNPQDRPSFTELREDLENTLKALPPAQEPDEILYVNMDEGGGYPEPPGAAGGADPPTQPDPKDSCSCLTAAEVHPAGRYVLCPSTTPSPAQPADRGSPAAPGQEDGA
The conditions noted are these: AXL, singlicate. From the text: (§1) Table S4. Profiling of two compounds at two concentrations against 320 wild-type protein kinases; singlicate measurement; Residual activities (% of control).

Test [2] has as its target T2, 320 wild-type protein kinases (Homo sapiens, UniProt Q04771).
T2 sequence (Q04771 21-509): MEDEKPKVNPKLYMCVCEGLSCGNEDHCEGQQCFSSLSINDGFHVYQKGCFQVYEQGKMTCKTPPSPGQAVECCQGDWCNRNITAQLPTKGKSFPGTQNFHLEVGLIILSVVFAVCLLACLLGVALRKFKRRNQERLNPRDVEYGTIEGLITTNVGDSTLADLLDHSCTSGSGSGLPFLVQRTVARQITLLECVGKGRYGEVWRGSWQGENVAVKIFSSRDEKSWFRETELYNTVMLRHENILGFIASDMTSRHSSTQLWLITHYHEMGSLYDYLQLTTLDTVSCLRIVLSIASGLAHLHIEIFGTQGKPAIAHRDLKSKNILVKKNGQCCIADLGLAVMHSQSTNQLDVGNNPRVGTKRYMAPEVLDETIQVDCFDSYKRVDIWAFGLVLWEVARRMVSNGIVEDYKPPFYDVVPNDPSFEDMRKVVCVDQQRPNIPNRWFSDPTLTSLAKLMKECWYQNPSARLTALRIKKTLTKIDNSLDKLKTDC
The conditions noted are these: singlicate.
From the text: as §1

Test [3] addresses T3, 320 wild-type protein kinases (Homo sapiens, UniProt Q02156).
T3 sequence (Q02156 1-737): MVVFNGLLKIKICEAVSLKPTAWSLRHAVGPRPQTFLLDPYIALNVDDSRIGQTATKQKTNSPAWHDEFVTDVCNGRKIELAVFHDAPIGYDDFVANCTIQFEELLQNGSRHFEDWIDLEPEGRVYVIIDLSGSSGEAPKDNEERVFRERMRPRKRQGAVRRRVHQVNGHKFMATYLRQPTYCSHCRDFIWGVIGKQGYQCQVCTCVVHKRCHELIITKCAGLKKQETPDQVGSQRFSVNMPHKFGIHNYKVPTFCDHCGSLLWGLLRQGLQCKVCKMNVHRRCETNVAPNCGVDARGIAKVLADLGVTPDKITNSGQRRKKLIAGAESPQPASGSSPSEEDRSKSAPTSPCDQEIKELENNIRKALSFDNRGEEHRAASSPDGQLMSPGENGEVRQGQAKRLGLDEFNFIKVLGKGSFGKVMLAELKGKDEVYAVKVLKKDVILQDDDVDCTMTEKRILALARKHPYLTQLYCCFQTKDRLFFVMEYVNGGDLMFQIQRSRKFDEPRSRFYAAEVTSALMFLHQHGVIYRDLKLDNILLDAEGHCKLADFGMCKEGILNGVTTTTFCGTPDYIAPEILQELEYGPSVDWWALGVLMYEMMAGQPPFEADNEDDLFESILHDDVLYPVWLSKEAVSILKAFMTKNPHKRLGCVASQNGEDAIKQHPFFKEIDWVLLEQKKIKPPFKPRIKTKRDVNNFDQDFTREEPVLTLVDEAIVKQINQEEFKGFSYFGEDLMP
The conditions noted are these: PKC-epsilon, singlicate.
From the text: as §1

Test [4] has as its target T4, 320 wild-type protein kinases (Homo sapiens, UniProt O60285).
T4 sequence (O60285 1-661): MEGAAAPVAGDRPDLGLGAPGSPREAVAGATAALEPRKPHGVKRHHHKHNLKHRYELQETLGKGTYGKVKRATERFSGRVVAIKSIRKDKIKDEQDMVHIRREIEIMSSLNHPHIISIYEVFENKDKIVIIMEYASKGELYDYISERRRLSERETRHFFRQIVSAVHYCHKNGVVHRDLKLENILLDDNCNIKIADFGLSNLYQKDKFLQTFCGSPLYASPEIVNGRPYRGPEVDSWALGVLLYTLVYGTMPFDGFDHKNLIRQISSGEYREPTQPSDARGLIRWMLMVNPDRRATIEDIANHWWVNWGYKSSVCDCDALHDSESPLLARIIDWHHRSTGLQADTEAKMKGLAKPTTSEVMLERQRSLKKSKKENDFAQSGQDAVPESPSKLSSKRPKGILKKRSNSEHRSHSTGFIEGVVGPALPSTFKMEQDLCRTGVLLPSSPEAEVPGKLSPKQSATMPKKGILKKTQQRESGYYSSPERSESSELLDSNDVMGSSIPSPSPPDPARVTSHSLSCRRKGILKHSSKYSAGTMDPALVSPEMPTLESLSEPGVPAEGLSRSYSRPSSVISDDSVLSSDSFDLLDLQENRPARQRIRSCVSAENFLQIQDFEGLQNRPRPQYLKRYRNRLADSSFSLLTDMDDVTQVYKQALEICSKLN
The conditions noted are these: singlicate.
From the text: as §1

SMILES strings stand for the structures. Like-named read-outs stand apart in the source and are kept apart here.

In the case of `C#Cc1cc(Nc2ncnc3cc(I)ccc23)ccc1Cl` [Compound 41], the Residual activity in test [1] (1.0E-06 M) is given as 97 % of control; in test [1] (1.0E-07 M), 116 % of control; in test [2] (ACV-R1, 1.0E-06 M), 86 % of control; in test [2] (ACV-R1, 1.0E-07 M), 91 % of control; in test [3] (1.0E-06 M), 89 % of control; in test [3] (1.0E-07 M), 82 % of control. Moreover, the Residual activity is 108 % of control in test [4] (ARK5, 1.0E-06 M) and 110 % of control in test [4] (ARK5, 1.0E-07 M).

`C#Cc1cc(Nc2ncnc3cc(OC)c(OC)cc23)ccc1Cl` [Compound 45]: the Residual activity is reported as 80 % of control in test [1] (1.0E-06 M); 103 % of control in test [1] (1.0E-07 M); 93 % of control in test [2] (ACV-R1, 1.0E-06 M); 98 % of control in test [2] (ACV-R1, 1.0E-07 M); 88 % of control in test [3] (1.0E-06 M); 89 % of control in test [3] (1.0E-07 M). The Residual activity is given as 114 % of control in test [4] (ARK5, 1.0E-06 M) and 104 % of control in test [4] (ARK5, 1.0E-07 M).
